# Measurements: PubChem BioAssay (NCI)
#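 At the GI50, growth is halved. TGI denotes the concentration required for complete inhibition of growth.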
# Legend:
# Assay in all cases: inhibition of tumour cell growth, NCI panel, 384-well format
# 786-0 renal = system: 786-0 renal
# A498 renal = system: A498 renal
# A549 NSCLC = system: A549 NSCLC
# ACHN renal = system: ACHN renal
# BT-549 breast = system: BT-549 breast
# CAKI-1 renal = system: CAKI-1 renal
# CCRF-CEM leukemia = system: CCRF-CEM leukemia
# EKVX NSCLC = system: EKVX NSCLC
# HCC-2998 colon = system: HCC-2998 colon
# HCT-116 colon = system: HCT-116 colon
# HCT-15 colon = system: HCT-15 colon
# HL-60(TB) leukemia = system: HL-60(TB) leukemia
# HS 578T breast = system: HS 578T breast
# HT29 colon = system: HT29 colon
# IGROV1 ovarian = system: IGROV1 ovarian
# K-562 leukemia = system: K-562 leukemia
# KM12 colon = system: KM12 colon
# M14 melanoma = system: M14 melanoma
# MALME-3M melanoma = system: MALME-3M melanoma
# MCF7 breast = system: MCF7 breast
# MDA-MB-231 breast = system: MDA-MB-231 breast
# MDA-MB-435 melanoma = system: MDA-MB-435 melanoma
# MDA-MB-468 breast = system: MDA-MB-468 breast
# NCI-H226 lung = system: NCI-H226 lung
# NCI-H322M lung = system: NCI-H322M lung
# NCI-H460 NSCLC = system: NCI-H460 NSCLC
# NCI-H522 lung = system: NCI-H522 lung
# NCI/ADR-RES ovarian = system: NCI/ADR-RES ovarian
# OVCAR-8 ovarian = system: OVCAR-8 ovarian
# PC-3 prostate = system: PC-3 prostate
# RPMI-8226 leukemia = system: RPMI-8226 leukemia
# RXF 393 renal = system: RXF 393 renal
# SF-268 CNS = system: SF-268 CNS
# SF-539 CNS = system: SF-539 CNS
# SK-MEL-2 melanoma = system: SK-MEL-2 melanoma
# SK-OV-3 ovarian = system: SK-OV-3 ovarian
# SN12C renal = system: SN12C renal
# SNB-19 CNS = system: SNB-19 CNS
# SNB-75 CNS = system: SNB-75 CNS
# SR leukemia = system: SR leukemia
# SW-620 colon = system: SW-620 colon
# T-47D breast = system: T-47D breast
# TK-10 renal = system: TK-10 renal
# U251 glioblastoma = system: U251 glioblastoma
# UACC-257 melanoma = system: UACC-257 melanoma
# UACC-62 melanoma = system: UACC-62 melanoma
# UO-31 renal = system: UO-31 renal
compound,measurement,setting,value
CCNC(=O)c1cc2c(-c3cc(C(C)(C)O)ccc3Oc3c(C)cc(F)cc3C)cn(C)c(=O)c2[nH]1,GI50,786-0 renal,1.24 µM
same,TGI,786-0 renal,12.3 µM
same,GI50,A498 renal,1.87 µM
same,TGI,A498 renal,13 µM
same,GI50,A549 NSCLC,1.51 µM
same,TGI,A549 NSCLC,12 µM
same,GI50,ACHN renal,3.23 µM
same,TGI,ACHN renal,15.1 µM
same,GI50,BT-549 breast,0.298 µM
same,TGI,BT-549 breast,1.92 µM
same,GI50,CAKI-1 renal,0.265 µM
same,TGI,CAKI-1 renal,10.7 µM
same,GI50,CCRF-CEM leukemia,1.03 µM
same,TGI,CCRF-CEM leukemia,2.37 µM
same,GI50,EKVX NSCLC,3.23 µM
same,TGI,EKVX NSCLC,13.9 µM
same,GI50,HCC-2998 colon,0.542 µM
same,TGI,HCC-2998 colon,2.03 µM
same,GI50,HCT-116 colon,1.37 µM
same,TGI,HCT-116 colon,10.3 µM
same,GI50,HCT-15 colon,1.6 µM
same,TGI,HCT-15 colon,5.23 µM
same,GI50,HL-60(TB) leukemia,0.145 µM
same,TGI,HL-60(TB) leukemia,0.618 µM
same,GI50,HS 578T breast,0.125 µM
same,TGI,HS 578T breast,2.02 µM
same,GI50,HT29 colon,1.24 µM
same,TGI,HT29 colon,13.4 µM
same,GI50,IGROV1 ovarian,0.508 µM
same,TGI,IGROV1 ovarian,2.29 µM
same,GI50,K-562 leukemia,0.879 µM
same,TGI,K-562 leukemia,10.7 µM
same,GI50,KM12 colon,1.42 µM
same,TGI,KM12 colon,11.2 µM
same,GI50,M14 melanoma,1.59 µM
same,TGI,M14 melanoma,16.9 µM
same,GI50,MALME-3M melanoma,1.15 µM
same,TGI,MALME-3M melanoma,3.36 µM
same,GI50,MCF7 breast,0.0484 µM
same,TGI,MCF7 breast,1.82 µM
same,GI50,MDA-MB-231 breast,0.505 µM
same,TGI,MDA-MB-231 breast,12.1 µM
same,GI50,MDA-MB-435 melanoma,5.22 µM
same,TGI,MDA-MB-435 melanoma,19.1 µM
same,GI50,MDA-MB-468 breast,0.358 µM
same,TGI,MDA-MB-468 breast,2.08 µM
same,GI50,NCI-H226 lung,1.26 µM
same,TGI,NCI-H226 lung,11.5 µM
same,GI50,NCI-H322M lung,1.61 µM
same,TGI,NCI-H322M lung,11.9 µM
same,GI50,NCI-H460 NSCLC,2.87 µM
same,TGI,NCI-H460 NSCLC,12.4 µM
same,GI50,NCI-H522 lung,0.0176 µM
same,TGI,NCI-H522 lung,0.933 µM
same,GI50,NCI/ADR-RES ovarian,12.3 µM
same,TGI,NCI/ADR-RES ovarian,26.1 µM
same,GI50,OVCAR-8 ovarian,1.12 µM
same,TGI,OVCAR-8 ovarian,2.55 µM
same,GI50,PC-3 prostate,1.41 µM
same,TGI,PC-3 prostate,12.6 µM
same,GI50,RPMI-8226 leukemia,0.0125 µM
same,TGI,RPMI-8226 leukemia,0.693 µM
same,GI50,RXF 393 renal,1.22 µM
same,TGI,RXF 393 renal,3.55 µM
same,GI50,SF-268 CNS,2.29 µM
same,TGI,SF-268 CNS,11.4 µM
same,GI50,SF-539 CNS,1.53 µM
same,TGI,SF-539 CNS,10.1 µM
same,GI50,SK-MEL-2 melanoma,0.139 µM
same,TGI,SK-MEL-2 melanoma,2.85 µM
same,GI50,SK-OV-3 ovarian,0.412 µM
same,TGI,SK-OV-3 ovarian,3.74 µM
same,GI50,SN12C renal,3.23 µM
same,TGI,SN12C renal,13.6 µM
same,GI50,SNB-19 CNS,2.01 µM
same,TGI,SNB-19 CNS,13.2 µM
same,GI50,SNB-75 CNS,1.5 µM
same,TGI,SNB-75 CNS,10.3 µM
same,GI50,SR leukemia,0.0328 µM
same,TGI,SR leukemia,1.3 µM
same,GI50,SW-620 colon,2.97 µM
same,TGI,SW-620 colon,15.6 µM
same,GI50,T-47D breast,1.31 µM
same,TGI,T-47D breast,8.3 µM
same,GI50,TK-10 renal,0.366 µM
same,TGI,TK-10 renal,2.96 µM
same,GI50,U251 glioblastoma,2.54 µM
same,TGI,U251 glioblastoma,10.9 µM
same,GI50,UACC-257 melanoma,0.748 µM
same,TGI,UACC-257 melanoma,10.4 µM
same,GI50,UACC-62 melanoma,0.152 µM
same,TGI,UACC-62 melanoma,4.06 µM
same,GI50,UO-31 renal,2.23 µM
same,TGI,UO-31 renal,13 µM
